From paper PMC8100298, “Histone deacetylase inhibitor resminostat in combination with sorafenib counteracts platelet-mediated pro-tumoral effects in hepatocellular carcinoma” (Scientific Reports, 2021)
Like-named read-outs stand apart in the source and are kept apart here.

Legend:
Assay in all cases: Efficacy screening assay
Format in all cases: cell-based
5637 (HTB-9) = tested on: 5637 (HTB-9)
Experimental: (§1) labelled fluorogenic peptide substrates: fluorogenic peptide from p53 residues 379-382 (RHKK(Ac)AMC) for HDAC1, 2, 3, 6, 10, 11; fluorogenic HDAC Class IIa Substrate (Trifluoro acetyl Lysine, Ac-LGK(TFA)-AMC) for HDAC 4, 5, 7, 9; and fluorogenic peptide from p53 residues 379-382 (RHK(Ac)K(Ac)AMC) for HDAC8. 1 mg/mL BSA and DMSO was added to the assay buffer (50 mM Tris-HCl, pH 8.0; 137 mM NaCl; 2.7 mM KCl; 1 mM MgCl2) prior to use. In a two-step reaction, the substrate with the acetylated lysine side chain was incubated for with a sample containing HDAC activity to p roduce the deacetylated products: 1 h at 30°C for HDAC1, 2, 3 and 6; 30 min at RT for HDAC4, 5, 7 and 9; 2 h at 30°C for HDAC8, 10 and 11. In a second step, the deacetylated products were digested by the addition of developer for 1 h at 30°C to produce the fluorescent signal proportional to the amount of deacetylated substrates and the fluorescence was measured using an Envision plate reader at 355 nm (excitation) and 460 nm (emission). A kinetic measurement was performed for ~1 h with 5 min intervals and d ata from the final time point were analysed. IC50 values and curve fits were obtained using GraphPad Softwar e.
(§2) The experiment was performed by Oncolead GmbH & Co. KG (Karlsfeld , Germany), based on a standardized screening procedure . Cell lines were purchased directly from the ATCC, NCI and DSMZ cell line c ollections. Cells used for the study had undergone less than 20 passages. To ensure the absence of potential contamination and wrong assignment, all cell lines were tested using a whole genome assay (Agilent, USA). All cell lines were grown as recommended by the suppliers and with addition of 100 U/mL penicillin G and 100 µg/mL; streptomycin. Cell growth and treatments were performed in Nunclon D 96 -well plates (NUNC, Germany). The optimal seeding density for each cell line was determined to ensure exponential growth for the duration of the experiment. All cells growing without anti-cancer agents were sub-conﬂuent by the end of the treatment, as determined by visual inspection.
(§3) After an initial 24 h pre-growth period, the compounds were added. The vehicle concentration […]
(§4) was 0.1% DMSO. After incubation at 37°C for 72 h, the culture medium was aspirated, and the cells were precipitated by the addition of 10% trichloroacetic acid (Sigma-Aldrich, Missouri, US). After overnight incubation at 4°C, the plates were washed three times with deionized water. The precipitates were then stained with SRB (0.4% wt/v sulforhodamine B solution in 1% acetic acid, Sigma-Aldrich, Missouri, US). Afterwards, the plates were washed six times with 1% acetic acid to remove unbound stain. After drying the plates at room temperature, the bound SRB was solubilized with 10 mM Tris base and the optical density was measured at 520 nm using a Victor2 plate reader (Perkin Elmer, Germany). Blank OD values were subtracted from mean OD values for each concentration. The nonlinear curve ﬁtting and EC50 calculations were per formed using XLﬁt and algorithm “205” (ID Business […]
(§5) For cell-based and other in vitro assays, data are presented as data mean ± SD of at least […]
(§6) For the orthotopic mouse model, data are presented as mean + SEM. For statistical analysis, one-way ANOVA and multiple comparison (Dunnett) was performed for compound treatments compared to vehicle control. The adjusted p-values with 95% confidence interval were reported as significant. For comparison of EC50 values in Figure 1F, one-way ANOVA with multiple comparison testing (Tukey) was performed. Multiplicity adjusted p -values for the EC50 with sorafenib versus resminostat for each cell line and comparison between cell lines for sorafenib are presented (95% confidence interval for significance testing). For comparison of EC50 data in Figure 2B, one-way ANOVA with multiple comparison testing (Tukey) was performed. Multiplicity adjusted p-values with 95% confidence interval was applied. For the […]

COLO205 = conditions: COLO205, colon
Experimental: as §1, §2, §3, §4, §5, §6

DLD1 = conditions: Homo sapiens, DLD-1, DLD1, colon, 72 h
Experimental: as §1, §2, §3, §4, §5, §6

DU145 = conditions: DU145, prostate
Experimental: as §1, §2, §3, §4, §5, §6

HEK293 = conditions: HEK293, kidney
Experimental: as §1, §2, §3, §4, §5, §6

HepG2 = conditions: Homo sapiens, HepG2, 72 h, HEPG2, liver
Experimental: as §1, §2, §3, §4, §5, §6

SF295 = conditions: SF295, brain
Experimental: as §1, §2, §3, §4, §5, §6

SKMEL28 = conditions: Homo sapiens, SK-MEL-28, SKMEL28, skin, 72 h
Experimental: as §1, §2, §3, §4, §5, §6

SKOV3 = conditions: SKOV3, ovary
Experimental: as §1, §2, §3, §4, §5, §6

SW620 = conditions: SW620, colon
Experimental: as §1, §2, §3, §4, §5, §6

TE671 = conditions: TE671, muscle
Experimental: as §1, §2, §3, §4, §5, §6

U87MG = conditions: 72 h, brain
Experimental: as §1, §2, §3, §4, §5, §6

[1] = log of EC50, negative, read-out: log(EC50) (converted)

Compound `CN(C)Cc1ccc(S(=O)(=O)n2ccc(/C=C/C(=O)NO)c2)cc1` [resminostat, Resminostat] has an EC50 (5637 (HTB-9); 72 h, bladder, log of EC50, negative, read-out: log(EC50) (converted)) of 1120 nM, an EC50 (5637 (HTB-9); 72 h, bladder, read-out: EC50) of 1130 nM and an EC50 (5637 (HTB-9); bladder, 72 h, read-out: EC50) of 1130 nM. For the same compound, the EC50 (COLO205; 72 h, read-out: EC50) was 2540 nM, the EC50 (COLO205; Homo sapiens, COLO 205, 72 h, log of EC50, negative, read-out: log(EC50) (converted)) was 2570 nM and the EC50 (COLO205; Homo sapiens, COLO 205, 72 h, read-out: EC50) was 2540 nM. The EC50 (DLD1; [1]) was 1950 nM, the EC50 (DLD1; read-out: EC50) was 1950 nM and the EC50 (DU145; 72 h, read-out: EC50) was 1380 nM. For the same compound, the EC50 (DU145; Homo sapiens, DU-145, 72 h, log of EC50, negative, read-out: log(EC50) (converted)) was 1380 nM, the EC50 (DU145; Homo sapiens, DU-145, 72 h, read-out: EC50) was 1380 nM and the EC50 (HEK293; 72 h, read-out: EC50) was 4760 nM. For the same compound, the EC50 (HEK293; Homo sapiens, HEK293, 72 h, log of EC50, negative, read-out: log(EC50) (converted)) was 4790 nM, the EC50 (HEK293; Homo sapiens, HEK293, 72 h, read-out: EC50) was 4760 nM and the EC50 (HepG2; [1]) was 501 nM. For the same compound, the EC50 (HepG2; read-out: EC50) was 504 nM, the EC50 (SF295; Homo sapiens, SF-295, 72 h, log of EC50, negative, read-out: log(EC50) (converted)) was 2510 nM and the EC50 (SF295; Homo sapiens, SF-295, 72 h, read-out: EC50) was 2530 nM. The EC50 (SF295; 72 h, read-out: EC50) was 2530 nM, the EC50 (SKMEL28; [1]) was 3310 nM and the EC50 (SKMEL28; read-out: EC50) was 3340 nM. It also gave an EC50 (SKOV3; Homo sapiens, SK-OV-3, 72 h, log of EC50, negative, read-out: log(EC50) (converted)) of 3720 nM, an EC50 (SKOV3; Homo sapiens, SK-OV-3, 72 h, read-out: EC50) of 3690 nM and an EC50 (SKOV3; 72 h, read-out: EC50) of 3690 nM. For the same compound, the EC50 (SW620; Homo sapiens, SW-620, 72 h, log of EC50, negative, read-out: log(EC50) (converted)) was 1290 nM, the EC50 (SW620; Homo sapiens, SW-620, 72 h, read-out: EC50) was 1270 nM and the EC50 (SW620; 72 h, read-out: EC50) was 1270 nM. For the same compound, the EC50 (TE671; Homo sapiens, TE-671, 72 h, log of EC50, negative, read-out: log(EC50) (converted)) was 1350 nM, the EC50 (TE671; Homo sapiens, TE-671, 72 h, read-out: EC50) was 1340 nM and the EC50 (TE671; 72 h, read-out: EC50) was 1340 nM. The EC50 (U87MG; Homo sapiens, U-87 MG, log of EC50, negative, read-out: log(EC50) (converted)) was 5500 nM, the EC50 (U87MG; Homo sapiens, U-87 MG, read-out: EC50) was 5550 nM and the EC50 (U87MG; read-out: EC50) was 5550 nM.
